According to the supplement of paper PMC10132981, “Formate overflow drives toxic folate trapping in MTHFD1 inhibited cancer cells” (Nature Metabolism, 2023):

Assays:
HCT116 = assay: EC50 for viability (resazurin, 96 h); settings: RPMI+GlutaMAX (10% FBS, 1% P/S)
SW620 [1] = assay: EC50 for viability (resazurin, 96 h); settings: RPMI+GlutaMAX (10% FBS, 1% P/S)
SW620 [2] = assay: cell viability relative to lowest-dose well (resazurin, 96 h); higher = more viable; settings: RPMI + 10% FBS
Outline: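 Viability values are expressed as percent of the lowest-dose well, using independent replicate cultures. HCT116 cells at 500 cells/well or SW620 cells at 1,000 cells/well were plated in 384-well plates in 50 µl RPMI containing 10% FBS and a metabolite supplement, then given compound dilution series dispensed from 10 mM DMSO stocks. After 96 h at 37 °C and 5% CO2, resazurin (10 µg ml^−1) conversion to resorufin was read by fluorescence at 595 nm after 5 h. Viability was read by resazurin-to-resorufin conversion and normalised to the lowest-dose vehicle well (=100%).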

O=c1[nH]cc(F)c(=O)[nH]1 [5-fluorouracil]
EC50 for viability [µM]
Settings | metabolite supplement: Folic acid | metabolite supplement: Folinic acid | metabolite supplement: Hypoxanthine | metabolite supplement: Thymidine | metabolite supplement: Thymidine + Folic acid | metabolite supplement: Thymidine + Folinic acid | metabolite supplement: Thymidine + Hypoxanthine | metabolite supplement: Vehicle
HCT116 | – | – | 3.08 | 2.22 | – | – | 3.29 | –
SW620 [1] | 4.72 | 4.28 | 7.63 | 4.39 | 4.5 | 4.32 | 7.42 | 5.04

cell viability [%], SW620 [2]
Settings | metabolite supplement: 50uM thymidine | metabolite supplement: 50uM thymidine + 250uM hypoxanthine | metabolite supplement: 250uM hypoxanthine | metabolite supplement: vehicle
0.0001 M | 6.17 | 8.1 | 8.23 | 7.07
0.001 µM | 100 | 100 | 100 | 100
0.01 µM | 103 | 99.7 | 103 | 104
0.0278 µM | 99.6 | 99.4 | 102 | 101
0.0774 µM | 97.9 | 101 | 98 | 102
0.215 µM | 94.8 | 99.9 | 99.2 | 100
0.599 µM | 93.3 | 97.1 | 101 | 99.9
1.67 µM | 77.5 | 87.9 | 92 | 84.1
4.64 µM | 52.2 | 65.6 | 66.7 | 56.8
12.9 µM | 26.5 | 37 | 38.5 | 30.8
35.9 µM | 11.9 | 16 | 16.8 | 13.2

Cc1[nH]nc2c1C(c1cc(CO)cc(-c3ccccc3)c1)(C(C)C)C(C#N)=C(N)O2 (stereo unspecified) [SHIN1]
SW620 [1]
Settings | EC50 for viability [µM]
metabolite supplement: Hypoxanthine | > 10
metabolite supplement: Sodium Formate | > 10
metabolite supplement: Thymidine | 1.88
metabolite supplement: Thymidine + Hypoxanthine | > 10
metabolite supplement: Thymidine + Sodium Formate | > 10

cell viability [%], SW620 [2]
Settings | metabolite supplement: 1mM sodium formate | metabolite supplement: 50uM thymidine | metabolite supplement: 50uM thymidine + 1mM sodium formate | metabolite supplement: 50uM thymidine + 250uM hypoxanthine | metabolite supplement: 250uM hypoxanthine | metabolite supplement: vehicle
0.001 µM | 100 | 100 | 100 | 100 | 100 | 100
0.01 µM | 99.57 | 98.9 | 102 | 103 | 102 | 100
0.0233 µM | 98.7 | 99.2 | 102 | 103 | 96.7 | 95
0.0541 µM | 98.5 | 102 | 104 | 103 | 101 | 98.63
0.126 µM | 97.4 | 102 | 104 | 103 | 101 | 97.1
0.293 µM | 96.93 | 99.6 | 101 | 105 | 98.8 | 95
0.682 µM | 95.3 | 96 | 103 | 104 | 98.8 | 88.6
1.59 µM | 94.8 | 85.5 | 100 | 108 | 98.8 | 82.9
3.69 µM | 92.3 | 75 | 98.1 | 104 | 96.4 | 72.3
8.6 µM | 89.6 | 69.3 | 95.2 | 102 | 93.9 | 68
20 µM | 78.2 | 66.5 | 83.8 | 90.8 | 84.8 | 66
